Columns and labels:
HDAC 1 = HDAC 1 (Homo sapiens, UniProt Q13547); experiment: HDAC 1 inhibition assay with about 3 hours enzyme/compound preincubation (fluorophore/quencher peptide substrate); type: biochemical; conditions: 3-hour preincubation of enzyme with compound; read-out: HDAC 1 inhibitory activity (IC50 [μM]) (3-hour preincubation)
Description: HDAC inhibitory activity of the compound of Example 1 was measured by two types of assays in which HDAC 1 was used as a target molecule. The first assay was carried out without preincubation after addition of the enzyme. The test compound was suspended in and titrated in dmso. It was then spotted into a 384-well test plate. The enzyme, HDAC 1, was diluted in assay buffer containing 25 mM Tris-HCl (pH 8.0), 137 mM NaCl, 2.7 mM KCl, and 0.01% Tween-20 and added to the pre-spotted compound. The peptide substrate containing a fluorophore/quencher pair was diluted in the same assay buffer and added to the compound/enzyme mix initiating the reaction. The reaction incubated at room temperature for about 45 minutes. A concentrated developer solution was diluted in the assay buffer, and added to the reaction. The reaction was incubated at room temperature for about 15 minutes and relative fluorescence was read on an instrument reader.
The second assay is similar to the first assay described above, except that preincubation is carried out for about 3 hours after the enzyme is introduced. The test compound was suspended in, and titrated in DMSO. It was then spotted into a 384-well test plate. The enzyme, HDAC 1, was diluted in the same assay buffer as used in the previous assay and added to the pre-spotted compound. The enzyme/compound mix was incubated at room temperature for about 3 hours. The peptide substrate containing a fluorophore/quencher pair was diluted in the assay buffer and added to the compound/enzyme mix initiating the reaction. The reaction incubated at room temperature for 45 minutes. A concentrated developer solution was diluted in the assay buffer, and added to the reaction. The reaction was incubated at room temperature for about 15 minutes and relative fluorescence was read on an instrument reader.

CDK2 = CDK2 (Homo sapiens, UniProt P24941); experiment: CDK2 inhibition; type: biochemical

HDAC 1, sequence (Q13547 whole entry, species assumed): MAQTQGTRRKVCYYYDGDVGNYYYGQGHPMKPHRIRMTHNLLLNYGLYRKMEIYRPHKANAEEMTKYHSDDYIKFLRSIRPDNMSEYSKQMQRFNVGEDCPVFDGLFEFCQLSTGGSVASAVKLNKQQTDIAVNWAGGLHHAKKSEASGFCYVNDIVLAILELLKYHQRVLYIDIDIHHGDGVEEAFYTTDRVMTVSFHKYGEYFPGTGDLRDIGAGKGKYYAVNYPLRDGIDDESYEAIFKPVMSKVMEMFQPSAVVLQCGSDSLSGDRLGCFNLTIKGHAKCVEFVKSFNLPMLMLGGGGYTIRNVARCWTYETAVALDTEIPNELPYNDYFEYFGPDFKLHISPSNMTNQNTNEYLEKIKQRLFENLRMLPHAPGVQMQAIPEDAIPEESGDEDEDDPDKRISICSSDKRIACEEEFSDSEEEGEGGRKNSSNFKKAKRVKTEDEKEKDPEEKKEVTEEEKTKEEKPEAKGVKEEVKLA

Row | Structure (SMILES) | IC50 (HDAC 1) | IC50 (CDK2)
1 | Cc1nc2cc(OCCN3CCOCC3)ccn2c1-c1ccnc(Nc2ccc(C(=O)Nc3ccccc3N)cc2)n1 [Example 29, N-(2-aminophenyl)-4-(4-(2-methyl-7-(2-morpholinoethoxy)imidazo[1,2-a]pyridin-3-yl)pyrimidin-2-ylamino)benzamide] | 0.315 µM | 2.13 µM
2 | Cc1nc2cc(NCCN(C)C)ccn2c1-c1ccnc(Nc2ccc(C(=O)Nc3ccccc3N)cc2)n1 [Example 32, N-(2-Amino-phenyl)-4-{4-[7-(2-dimethylamino-ethylamino)-2-methyl-imidazo[1,2-a]pyridin-3-yl]-pyrimidin-2-ylamino}-benzamide] | 0.141 µM | 2.58 µM
3 | Cc1nc2ccccn2c1-c1ccnc(Nc2ccc(C(=O)NO)cc2F)n1 [Example 33, 3-Fluoro-N-hydroxy-4-[4-(2-methyl-imidazo[1,2-a]pyridin-3-yl)-pyrimidin-2-ylamino]-benzamide] | 0.126 µM | 0.22 µM
4 | Cc1nc2ccccn2c1-c1ccnc(Nc2ccc(C(=O)Nc3ccccc3N)cc2F)n1 [Example 34, N-(2-Amino-phenyl)-3-fluoro-4-[4-(2-methyl-imidazo[1,2-a]pyridin-3-yl)-pyrimidin-2-ylamino]-benzamide] | 1.56 µM | 0.86 µM
5 | Cc1nc2ccc(C(=O)NCCN(C)C)cn2c1-c1ccnc(Nc2ccc(C(=O)Nc3ccccc3N)cc2)n1 [Example 37, 3-(2-(4-(2-aminophenylcarbamoyl)phenylamino)pyrimidin-4-yl)-N-(2-(dimethylamino)ethyl)-2-methylimidazo[1,2-a]pyridine-6-carboxamide] | 0.132 µM | 1.88 µM
6 | Cc1nc2ccc(C(=O)N3CCN(C)CC3)cn2c1-c1ccnc(Nc2ccc(C(=O)Nc3ccccc3N)cc2)n1 [Example 39, N-(2-Amino-phenyl)-4-{4-[2-methyl-6-(4-methyl-piperazine-1-carbonyl)-imidazo[1,2-a]pyridin-3-yl]-pyrimidin-2-ylamino}-benzamide] | 0.563 µM | 7.94 µM
7 | COCCOc1ccc2nc(C)c(-c3ccnc(Nc4ccc(C(=O)Nc5ccccc5N)cc4)n3)n2c1 [Example 41, N-(2-Amino-phenyl)-4-{4-[6-(2-methoxy-ethoxy)-2-methyl-imidazo[1,2-a]pyridin-3-yl]-pyrimidin-2-ylamino}-benzamide] | 0.877 µM | 4.34 µM
8 | COc1ccc2nc(C)c(-c3ccnc(Nc4ccc(C(=O)Nc5ccccc5N)cc4)n3)n2c1 [Example 42, N-(2-Amino-phenyl)-4-[4-(6-methoxy-2-methyl-imidazo[1,2-a]pyridin-3-yl)-pyrimidin-2-ylamino]-benzamide] | 0.388 µM | 0.29 µM
9 | Cc1nc2c(F)cccn2c1-c1ccnc(Nc2ccc(C(=O)Nc3ccccc3N)cc2)n1 [Example 45, N-(2-Amino-phenyl)-4-[4-(8-fluoro-2-methyl-imidazo[1,2-a]pyridin-3-yl)-pyrimidin-2-ylamino]-benzamide] | 0.178 µM | 0.35 µM
10 | Cc1nc2cc(CN(C)C)ccn2c1-c1ccnc(Nc2ccc(C(=O)Nc3ccccc3N)cc2)n1 [Example 46, N-(2-Amino-phenyl)-4-[4-(7-dimethylaminomethyl-2-methyl-imidazo[1,2-a]pyridin-3-yl)-pyrimidin-2-ylamino]-benzamide] | 0.13 µM | 1.61 µM
11 | Cc1nc2ccc(Br)cn2c1-c1ccnc(Nc2ccc(C(=O)Nc3ccccc3N)cc2)n1 [Example 47, N-(2-Amino-phenyl)-4-[4-(6-bromo-2-methyl-imidazo[1,2-a]pyridin-3-yl)-pyrimidin-2-ylamino]-benzamide] | > 10 µM | 0.14 µM
12 | COc1ccn2c(-c3ccnc(Nc4ccc(C(=O)Nc5ccccc5N)cc4)n3)c(C(F)(F)F)nc2c1 [Example 48, N-(2-Amino-phenyl)-4-[4-(7-methoxy-2-trifluoromethyl-imidazo[1,2-a]pyridin-3-yl)-pyrimidin-2-ylamino]-benzamide] | 0.06 µM | 0.14 µM
13 | COc1ccn2c(-c3ccnc(Nc4ccc(C(=O)NO)cc4)n3)c(C(F)(F)F)nc2c1 [Example 49, N-Hydroxy-4-[4-(7-methoxy-2-trifluoromethyl-imidazo[1,2-a]pyridin-3-yl)-pyrimidin-2-ylamino]-benzamide] | 0.199 µM | 0.06 µM
14 | Nc1ccccc1NC(=O)c1ccc(Nc2ncc(F)c(-c3cnc4ccccn34)n2)cc1 [Example 50, N-(2-Amino-phenyl)-4-(5-fluoro-4-imidazo[1,2-a]pyridin-3-yl-pyrimidin-2-ylamino)-benzamide] | > 20 µM | 0.06 µM

Next, values leading:

Row | IC50 (HDAC 1) | IC50 (CDK2) | Structure (SMILES)
15 | 0.118 µM | 1.07 µM | Cc1nc2cc(OCCN(C)C)ccn2c1-c1ccnc(Nc2ccc(C(=O)Nc3ccccc3N)cc2)n1 [Example 30, N-(2-Amino-phenyl)-4-{4-[7-(2-dimethylamino-ethoxy)-2-methyl-imidazo[1,2-a]pyridin-3-yl]-pyrimidin-2-ylamino}-benzamide]
16 | 0.243 µM | 0.4 µM | COCCOc1ccn2c(-c3ccnc(Nc4ccc(C(=O)Nc5ccccc5N)cc4)n3)c(C)nc2c1 [Example 31, N-(2-Amino-phenyl)-4-{4-[7-(2-methoxy-ethoxy)-2-methyl-imidazo[1,2-a]pyridin-3-yl]-pyrimidin-2-ylamino}-benzamide]
17 | 0.128 µM | 0.06 µM | Cc1nc2ccccn2c1-c1ccnc(Nc2ccc(C(=O)NO)c(F)c2)n1 [Example 35, 2-Fluoro-N-hydroxy-4-[4-(2-methyl-imidazo[1,2-a]pyridin-3-yl)-pyrimidin-2-ylamino]-benzamide]
18 | > 10 µM | 0.11 µM | Cc1nc2ccccn2c1-c1ccnc(Nc2ccc(C(=O)Nc3ccccc3N)c(F)c2)n1 [Example 36, N-(2-Amino-phenyl)-2-fluoro-4-[4-(2-methyl-imidazo[1,2-a]pyridin-3-yl)-pyrimidin-2-ylamino]-benzamide]
19 | 0.312 µM | 2.74 µM | COCCNC(=O)c1ccc2nc(C)c(-c3ccnc(Nc4ccc(C(=O)Nc5ccccc5N)cc4)n3)n2c1 [Example 38, 3-(2-(4-(2-aminophenylcarbamoyl)phenylamino)pyrimidin-4-yl)-N-(2-methoxyethyl)-2-methylimidazo[1,2-a]pyridine-6-carboxamide]
20 | 0.347 µM | 7.1 µM | Cc1nc2ccc(C(=O)NCCN3CCOCC3)cn2c1-c1ccnc(Nc2ccc(C(=O)Nc3ccccc3N)cc2)n1 [Example 40, 3-(2-(4-(2-aminophenylcarbamoyl)phenylamino)pyrimidin-4-yl)-2-methyl-N-(2-morpholinoethyl)imidazo[1,2-a]pyridine-6-carboxamide]
21 | 0.14 µM | 0.08 µM | COc1ccc2nc(C)c(-c3ccnc(Nc4ccc(C(=O)NO)cc4)n3)n2c1 [Example 43, N-Hydroxy-4-[4-(6-methoxy-2-methyl-imidazo[1,2-a]pyridin-3-yl)-pyrimidin-2-ylamino]-benzamide]
22 | 0.251 µM | 0.09 µM | Cc1nc2c(F)cccn2c1-c1ccnc(Nc2ccc(C(=O)NO)cc2)n1 [Example 44, 4-[4-(8-Fluoro-2-methyl-imidazo[1,2-a]pyridin-3-yl)-pyrimidin-2-ylamino]-N-hydroxy-benzamide]
23 | 0.211 µM | 0.014 µM | O=C(NO)c1ccc(Nc2ncc(F)c(-c3cnc4ccccn34)n2)cc1 [Example 51, 4-(5-Fluoro-4-imidazo[1,2-a]pyridin-3-yl-pyrimidin-2-ylamino)-N-hydroxy-benzamide]

Source: patent US8124764B2, “Fused heterocyclyc inhibitor compounds” (Gilead Sciences, Inc., priority 2008, dated 2012)
